One series concerns PTPRG. The experiment in a line: in vitro phosphatase activity (pNPP) on membranes from human primary monocytes. It is filed as biochemical. The note with it: monocyte membranes; control peptide, concentration not given; DMSO 7.25. As for the experimental part:
We first tested the biochemical activity of the fusion peptide by performing in vitro assays of phosphatase activity on purified membranes isolated from human primary monocytes compared to membranes isolated from human primary polymorphonuclear cells (PMNs). Human primary monocytes and polymorphonuclear (PMNs) cells were isolated from whole blood of healthy donors. Purity of monocyte preparation was evaluated by flow cytometry after staining with fluorescein isothiocyanate (FITC)-conjugated anti-CD14 antibody and was more than 95%. Isolated cells were kept at 37° C. in standard adhesion buffer (PBS, 1 mM CaCl2, 1 mM MgCl2, 10% FBS, pH 7.2) and used within 1 h.
The phosphatase activity in membrane fractions isolated from human monocytes and PMNs was assessed. […] Cells were then sonicated twice (6 sec, 15% W) and centrifuged at 2000 rpm for 10 minutes. The supernatants were collected and centrifuged at 28000 rpm for 60 minutes. After centrifugation, the supernatants were discarded, and the membrane pellets were dissolved in 20 mM tris pH 7.4. Equal amount of membrane fractions were added to pNPP buffer containing 20 mM tris, 10 mM DTT and 2 mM pNPP. Following, DMSO and peptides were added. After 30 minutes of incubation, levels of de-phosphorylation, in presence or absence of orthovanadate, were measured at 405 nm by a plate reader. Values are absorbance at 405 nn shown as percent fold increase over the blank; mean values of three experiments are shown. *p<0.001 vs vehicle (DMSO).

The test system of another series is U251 GBM cells. Kind of series: cell number by flow cytometry, U251 GBM cells. It is filed as cell-based. The note with it: TAT 50 μM, input 5000. As for the experimental part: Cell viability and survival was measured using the MTT assay, a colorimetric assay for assessing cell metabolic activity set up under conditions where the absorption reflects the number of viable cells present (Table 21 and 22) and expressed as relative absorption at 570 nm. Early apoptosis was measured using VYBRANT DyeCycle Violet stain (Molecular Probes), a DNA-selective, cell membrane-permeant dye that can distinguish the compacted state of the nuclear chromatin in apoptotic cells as determined by flow cytometry and presented as the percent of cells that are apoptotic (Table 23 and 24). The actual number of cells following treatment with TAT-ICD or TAT alone (Table 25) was determined using flow cytometry compared to an input of 5,000 cells at time zero. To confirm apoptosis the TUNEL labeling assay, which detects DNA strand breaks in apoptotic cells by fluorescence microscopy, was also used to examine U251 cells treated with the PTPRG WD. Briefly, the assay used an optimized terminal transferase ([…]) to label 3′OH ends in genomic DNA with TMR-dUTP, thus allowing the measurement and quantification of cell death by apoptosis. U251 cells were pretreated for 1, 3 and 6 hours with 50 μM P1-WD. Then cells were fixed and permeabilized, incubated with TUNEL reaction mixture for 1 h at RT, and then stained with DAPI (for nuclei detection) and with Alexa670-Phalloidin (to detect actin in cell membranes). After the staining steps, cells were visualized with a confocal microscope.

The test system of a further series is bEnd3 endothelial cells. The experiment in a line: MTT assay, bEnd3 endothelial cells. It is filed as cell-based. A general note: Formazan colour is commonly taken as a measure of viable cells.
The test system of series [1] is DBTRG GBM cells. The experiment in a line: MTT survival assay, DBTRG GBM cells. It is filed as cell-based, human. As for the experimental part:
(§1) The DBTRG-O5MG (Denver Brain Tumor Research Group 05) cell line was established from tissue from a patient with glioblastoma multiforme who had been treated with local brain irradiation and multi drug chemotherapy (Kruse C A, et al. 1992 In vitro Cell Dev Biol, 28A(9-10):609-14). U87 is a commonly studied and thoroughly characterized grade IV glioma cell line derived from malignant glioma (Clark M J, et al, 2010 Plos Genet. 6(1):e1000832.). T98G is a glioblastoma multiforme cell line extracted from a person (Stein G H, 1979, J. Cell Physiol, 99(1):43-54). Proliferation and survival were assessed following TAT-ICD or control peptide (Table 29) or the P1-WD or control peptide treatment using the MTT assay as described above. Data are relative absorption; mean and standard deviation.

Series [2] deals with DBTRG GBM cells. Kind of series: VYBRANT early apoptosis, DBTRG GBM cells. The series is classed as cell-based, human. The note with it: 0.5 μM.
The test system of series [3] is U87 GBM cells. Kind of series: MTT survival assay, U87 GBM cells. It is filed as cell-based. As for the experimental part: as §1
The subject of series [4] is U87 GBM cells. Kind of series: VYBRANT apoptosis, U87 GBM cells. The series is classed as cell-based. The note with it: 0.5 μM.

On to “P1: Penetratin delivery peptide, 16 aa RQIKIWFQNRRMKWKK (SEQ ID 4), control [reference compound]”, for which the “phosphatase activity, absorbance at 405 nm as percent fold increase over the blank” value in the series with PTPRG amounted to 16.00%.

Regarding “TAT (GRKKRRQRRRPPQ; listed as Homo sapiens) [reference compound]”, the number of cells in the series on U251 GBM cells (6 hours, Control 5000) is 4700 cells per standard volume of medium; with U251 GBM cells (9 hours, Control 10000), 7000 cells per standard volume of medium; with U251 GBM cells (24 hours, Control 10000) it was 11385 cells per standard volume of medium. The “mean absorbance in the MTT assay” value in the series on bEnd3 endothelial cells (0.1 uM, 24 hours, CTRL 352) was 354; in the series on bEnd3 endothelial cells (0.1 uM, 48 hours, CTRL 523), 503; in the series with bEnd3 endothelial cells (0.25 uM, 24 hours, CTRL 352), 338; with bEnd3 endothelial cells (0.25 uM, 48 hours, CTRL 523), 540; in the series on bEnd3 endothelial cells (0.5 uM, 24 hours, CTRL 352), 328; in the series on bEnd3 endothelial cells (0.5 uM, 48 hours, CTRL 523), 528. Moreover, the MTT relative absorption with DBTRG GBM cells [1] (0.3 μM, 24 hours, Control 941) worked out at 711; in the series on DBTRG GBM cells [1] (0.3 μM, 48 hours, Control 1274) it was 1031; in the series on DBTRG GBM cells [1] (0.3 μM, 72 hours, Control 1667) it was 1583; in the series with DBTRG GBM cells [1] (0.5 μM, 24 hours, Control 941) it was 826; in the series with DBTRG GBM cells [1] (0.5 μM, 48 hours, Control 1274), 1061; in the series with DBTRG GBM cells [1] (0.5 μM, 72 hours, Control 1667), 1591. Further, the MTT relative absorption in the series on DBTRG GBM cells [1] (1.0 μM, 24 hours, Control 941) stood at 792; with DBTRG GBM cells [1] (1.0 μM, 48 hours, Control 1274), 1005; with DBTRG GBM cells [1] (1.0 μM, 72 hours, Control 1667), 1275; in the series with U87 GBM cells [3] (0.1 μM, 24 hours, CTRL 1200) it was 1200; with U87 GBM cells [3] (0.1 μM, 48 hours, CTRL 1200) it was 1018; with U87 GBM cells [3] (0.1 μM, 72 hours, CTRL 1336), 1343. Further, the MTT relative absorption amounted to 1195 in the series on U87 GBM cells [3] (0.25 μM, 24 hours, CTRL 1200); 950 in the series on U87 GBM cells [3] (0.25 μM, 48 hours, CTRL 1200); 1200 in the series with U87 GBM cells [3] (0.25 μM, 72 hours, CTRL 1336); 1160 with U87 GBM cells [3] (0.5 μM, 24 hours, CTRL 1200); 900 in the series with U87 GBM cells [3] (0.5 μM, 48 hours, CTRL 1200); 1235 in the series with U87 GBM cells [3] (0.5 μM, 72 hours, CTRL 1336). The “percent of apoptotic cells by flow cytometry” value was 10% with DBTRG GBM cells [2] (1 h, Control 14); 10% in the series on DBTRG GBM cells [2] (3 h, Control 16); 7% with DBTRG GBM cells [2] (6 h, Control 33). In addition, the “percent of apoptotic cells” value is listed as 20% in the series on U87 GBM cells [4] (1 hour, Control 10); 10% with U87 GBM cells [4] (3 hours, Control 3); 20% with U87 GBM cells [4] (6 hours, Control 14).

These data come from patent publication US10898548B2, “Modulators of protein tyrosine phosphatase and uses thereof” (LEUVAS THERAPEUTICS, priority 2015, dated 2021).
